Results reported in publication PMC12371492, “Poly-Arginine Tails and Helical Segments of Natural Antimicrobial Peptides Display Concerted Action at Membranes for Enhanced Antimicrobial Effects” (ACS Bio & Med Chem Au, 2025).
Read-outs that look alike come from different tables or passages of the source. Ends that are not written are not given here.

What was measured:
[1] = test system: Vibrio cholerae O1 El Tor strain C6706; assay type: cell-based; conditions: CM9-Hepes pH 7.4, 5 × 10^5 cfu/mL, 20 h at 37 °C shaking, OD 600 nm, triplicate
bacteria = bacteria and source not stated (discussion)
[2] = Calcein dye leakage assay on LUVs
Description: Calcein leakage assays were done on large unilamellar vesicles (LUVs) following a procedure previously described. , Briefly, a 3:1 POPC/POPG lipid film (containing 4 μmol total of lipids) was prepared in a round-bottom flask using the lipids dissolved in chloroform. The solvent was removed under N2 gas before drying overnight under vacuum. The next day, the lipid cake was hydrated with 300 μL of 80 mmol/L calcein dye (pH 7.4) to generate a suspension that was subjected to 3 freeze–thaw cycles before extrusion through a 0.1 μm polycarbonate filter placed in a mini extruder (Avanti Polar Lipids). Untrapped calcein was separated from the LUVs by chromatography using a Sephadex G-50 column run with HEPES buffer (50 mmol/L, 100 mmol/L NaCl, 0.3 mmol/L EDTA, pH 7.4). A total phosphorus assay was performed to determine the exact lipid concentration of the LUVs. After diluting the vesicles to a final concentration of ∼35 μmol/L, the LUVs were plated in 180 μL wells and exposed to 20 μL of TP4 solutions serially diluted from stock, as needed to generate peptide-to-lipid ratios (P/L) ranging from P/L = 1:2 and 1:1024. Triplicates of each well were run, and at least three independent assays were performed as well. The 96-well plate was incubated at 20 °C with shaking for 40 min. After equilibration at room temperature, the fluorescence was measured using a BioTek SynergyH1 plate reader (BioTek, Winooski, VT) using excitation and emission wavelengths of 490 and 520 nm, respectively. The fractional leakage produced by TP4 was calculated using the equation: %leakage=Ix−I0%/I100%−I0% where I x is the fluorescence intensity in a peptide-containing well, I 100% is the intensity of the positive control (100% leakage obtained with 20 μL of 1% Triton-X detergent), and I 0% is the intensity of the negative control (0% leakage obtained with 20 μL nanopure water). P1 was run in parallel for comparative purposes. The dose–response curves were fitted in GraphPad Prism using a modified version of the Hill equation to extract the EC50 as the P/L where half of the dye has been released. […]

[3] = test system: Staphylococcus epidermidis (S. epidermidis), derived from ATCC 14990; assay type: cell-based
Description: (§1) Minimum inhibitory concentrations were determined by broth microdilution technique. Two bacterial species were used: Gram-positive bacteria Staphylococcus epidermidis (S. epidermidis), derived from ATCC 14990 and Gram-negative bacteria Escherichia coli (E. coli) MG1655, respectively. S. epidermidis was grown in TSB, and E. coli was grown in MHB. Both were stored at 4 °C on their respective growth medium agar plates. Before the assay, bacteria were grown overnight in 5 mL of growth medium at 37 °C. The grown bacteria were further subcultured in 3 mL of growth medium by diluting to 1% until the O.D. reached 0.4–0.6 within 2.5–3 h. After the bacteria reached the mid log phase, further dilution was made to attain an O.D. of 0.001 to get a final of ∼10^5 CFU/mL in each well of a 96-well plate. An Opentron OT_2 robot pipetting system was used to automatically prepare serial dilutions of peptides and add the bacteria to attain a total volume of 100 μL in each well. The wells containing only medium served as a negative blank. The plate was then incubated for 24 h at 37 °C, and the O.D. of the plate was recorded at 600 nm using a BioTek (Agilent, Santa Clara, CA) microplate reader (Figure S1). The lowest concentration at which no bacterial growth was observed was considered the MIC of the peptide.

[4] = test system: Escherichia coli (E. coli) MG1655; assay type: cell-based
Description: as §1

[5] = broth microdilution, TSB, ~10^5 CFU/mL, 24 h at 37 °C, O.D. 600 nm, lowest concentration with no growth
[6] = broth microdilution, MHB, ~10^5 CFU/mL, 24 h at 37 °C, O.D. 600 nm, lowest concentration with no growth

Row | Substance | MIC Vibrio cholerae [1] [µM] | MIC values (bacteria) [µM] | MIC S. epidermidis [3, 5] [µM] | MIC E. coli [4, 6] [µM] | other results
1 | FFHHIFRGIVHVGKTIHRLVTG-NH2 [P1, reference compound] | 16 | < 1 | – | – | –
2 | FFHHIFRGIVHVGKTIHRLVTGRRRRR-NH2 [P1-R5, P1 with the R5 motif added at the C-terminal end] | – | – | – | – | EC50, L/P yielding 50% calcein leakage ([2]; 3:1 POPC/POPG LUVs ~35 μmol/L lipid, HEPES pH 7.4, 40 min at 20 °C, fluorescence 490/520 nm, ± standard error, three assays in triplicate): 97.2 ± 3.4 L/P; calcein leakage ([2]; POPC/POPG liposomes, P/L of 1:10): 100%; factor more active than P1 (EC50 ratio) ([2]; calcein leakage, 3:1 POPC/POPG LUVs): 3.4 fold
3 | FIHHIIGGLFSAGKAIHRLI-NH2 [TP4-noR5] | – | – | 2 | 16 | –
4 | FIHHIIGGLFSAGKAIHRLIRRRRR-NH2 [TP4] | 1 | < 1 | – | – | MIC S. epidermidis ([3]; ATCC 14990, 24 h): 1 µM; MIC E. coli ([4]; MG1655, 24 h): 4 µM
5 | QLAQALAAALAALAQGW-NH2 [NP] | – | – | >64 | >64 | –
6 | QLAQALAAALAALAQGWRRRRR-NH2 [NP-R5] | – | – | 2 | 7.5 | –
